Test results reported in patent publication US6267945A, “Farnesol-related calcium channel blockers” (NeuroMed Technologies, Inc., priority 1998, dated 2001).
Where two headings read alike, the source gives them in different places.

Legend:
L-type receptors = settings: micromolar range; cited from earlier work
[1] = target: T1, N-type calcium channel (α1B + α2 + β1b) (Rattus norvegicus, UniProt Q02294); assay: Inactivation of N-type calcium channels (steady state inactivation, shift in V0.5), whole cell patch clamp; type: cell-based
T1 construct: expressed in transfected cells; host or cells: HEK293 cells stably expressing, or HEK TSA 201 cells transiently transfected with, α1B + α2 + β1b
Description: (§1) There are two distinguishable types of calcium channel inhibition. […] A second type of block is referred to herein as "inactivation inhibition." When maintained at less negative resting potentials, such as the physiologically important potential of -70 mV, a certain percentage of the receptor channels may undergo conformational change, rendering them incapable of being activated--i.e., opened--by the abrupt depolarization. Thus, the peak current due to calcium ion flow will be diminished not because the open channel is blocked, but because some of the channels are unavailable for opening (inactivated). "Inactivation" type inhibitors increase the percentage of receptors that are inactivated.
(§2) As described above, a more definitive assay can be used to distinguish inhibitors of calcium flow which operate as open channel blockers, as opposed to those that operate by promoting inactivation of the channel. The methods to distinguish these types of inhibition are more particularly described in the examples below. In general, open-channel blockers are assessed by measuring the level of peak current when deploarization is imposed on a background resting potential of about -100 mV in the presence and absence of the candidate compound. Successful open-channel blockers will reduce the peak current observed and accelerate the decay of this current. Compounds that are inactivated channel blockers are determined by their ability to shift the voltage dependence of inactivation towards more negative potentials. This is also reflected in their ability to reduce peak currents at more depolarized holding potentials(e.g., -70 mV).
(§3) Human embryonic kidney TSA 201 cells were grown in standard DMEM medium, supplemented with 10% fetal bovine serum and 0.4 mg/ml neomycin. The cells were grown to 80% confluency, split with trypsin EDTA and plated on glass coverslips at 10% confluency 12 hours prior to transfection. Immediately prior to transfection, the medium was replaced and the cells were transiently transfected with cDNAs encoding calcium channel α1B, β1b and α2 subunits (at a 1:1:1 molar ratio) using a standard calcium phosphate protocol. After 12 hours, the medium was replaced with fresh DMEM and the cells were allowed to recover for 12 hours. Subsequently the cells were incubated at 28° C. in 5% CO2 for 1-2 days prior to recording. Human embryonic kidney cells stably expressing N-type α1B +α2 +β1b were maintained and plated for electrophysiological recordings as described by Zamponi, G. W. et al., Nature (1997) 385:442-446.
(§4) Immediately prior to recording, individual cover slips were transferred to a 3 cm culture dish containing an external recording solution. The external recording solution was 20 mM BaCl2, 1 mM MgCl2, 10 mM HEPES, 40 mM TEACl, 10 mM glucose, 65 mM CsCl (pH 7.2) or 5 mM BaCl2, 1 mM MgCl2, 10 mM HEPES, 40 mM TEACl, 10 mM glucose, 87.5 mM CsCl (pH 7.2). […] The internal pipette solution is 105 mM CsCl, 25 mM TEACl, 1 mM CaCl2, 11 mM EGTA, 10 mM HEPES (pH 7.2). Whole cell patch clamp experiments were performed using an Axopatch 200B amplifier (Axon Instruments, Burlingame, Calif.) linked to an IBM compatible personal computer equipped with pCLAMP 6.0 software. Currents were typically elicited from a holding potential of -100 mV to various test potentials. The compounds to be tested were prepared as stock solutions in ethanol and diluted into the recording solution at the appropriate final concentrations, and perfused directly onto the cells using a gravity driven microperfusion system. At the applicable concentrations, ethanol by itself had no effect on calcium channel activity. Data were filtered at 1 kHz and recorded directly on the hard drive of a personal computer. The data were analyzed using ClampFit (Axon Instruments). Curve fitting was carried out in Sigmaplot 4.0 (Jandel Scientific). Steady state inactivation curves were fitted with a Boltzman equation,
Ipeak(normalized) =1/(1+exp((V-Vh)Z/25.6)) […]

[2] = test system: L-type calcium channel (α1C); assay: Inactivation effect on L-type channels, resting potential -70 mV; type: cell-based; settings: 250 nM farnesol
Description: as §3
(§5) For some experiments, cells were prepared wherein the α1B unit was replaced by α1A (P/Q type) α1C (type L) or α1E (undefined). α1B represents N-type.
(§6) Immediately prior to recording, individual cover slips were transferred to a 3 cm culture dish containing an external recording solution. […] Data were filtered at 1 kHz and recorded directly on the hard drive of a personal computer. The data were analyzed using ClampFit (Axon Instruments). […]

α1E calcium channel [3] = assay: Inactivation effect on α1E channels, resting potential -70 mV; type: cell-based; settings: 250 nM farnesol
Description: as §3, §5, §6

[4] = test system: L-type calcium channel (α1C); assay: Open-channel block of L-type channels, resting potential -100 mV; type: cell-based; settings: 25 μM farnesol
Description: as §3, §5, §6

[5] = target: T1, N-type calcium channel (α1B + α2 + β1b); assay: Open-channel block of N-type calcium channels, whole cell patch clamp, holding potential -100 mV; type: cell-based; settings: for normalized peak height: -100 mV to +20 mV; for inhibition at 10 µM: read-out: Open/Resting Block (determined at 10 μM)
Description: as §1, §2, §3
as §4, with “equation, […]” for “equation,”

[6] = test system: P/Q type calcium channel (α1A); assay: Open-channel block of P/Q-type channels, resting potential -100 mV; type: cell-based; settings: 25 μM farnesol
Description: as §3, §5, §6

[7] = test system: P/Q type calcium channel (α1A); assay: Inactivation effect on P/Q-type channels, resting potential -70 mV; type: cell-based; settings: 250 nM farnesol
Description: as §3, §5, §6

α1E calcium channel [8] = assay: Open-channel block of α1E channels, resting potential -100 mV; type: cell-based; settings: 25 μM farnesol
Description: as §3, §5, §6

[9] = corrected for control inactivation rate, linear fit

T1 sequence (Q02294 whole entry): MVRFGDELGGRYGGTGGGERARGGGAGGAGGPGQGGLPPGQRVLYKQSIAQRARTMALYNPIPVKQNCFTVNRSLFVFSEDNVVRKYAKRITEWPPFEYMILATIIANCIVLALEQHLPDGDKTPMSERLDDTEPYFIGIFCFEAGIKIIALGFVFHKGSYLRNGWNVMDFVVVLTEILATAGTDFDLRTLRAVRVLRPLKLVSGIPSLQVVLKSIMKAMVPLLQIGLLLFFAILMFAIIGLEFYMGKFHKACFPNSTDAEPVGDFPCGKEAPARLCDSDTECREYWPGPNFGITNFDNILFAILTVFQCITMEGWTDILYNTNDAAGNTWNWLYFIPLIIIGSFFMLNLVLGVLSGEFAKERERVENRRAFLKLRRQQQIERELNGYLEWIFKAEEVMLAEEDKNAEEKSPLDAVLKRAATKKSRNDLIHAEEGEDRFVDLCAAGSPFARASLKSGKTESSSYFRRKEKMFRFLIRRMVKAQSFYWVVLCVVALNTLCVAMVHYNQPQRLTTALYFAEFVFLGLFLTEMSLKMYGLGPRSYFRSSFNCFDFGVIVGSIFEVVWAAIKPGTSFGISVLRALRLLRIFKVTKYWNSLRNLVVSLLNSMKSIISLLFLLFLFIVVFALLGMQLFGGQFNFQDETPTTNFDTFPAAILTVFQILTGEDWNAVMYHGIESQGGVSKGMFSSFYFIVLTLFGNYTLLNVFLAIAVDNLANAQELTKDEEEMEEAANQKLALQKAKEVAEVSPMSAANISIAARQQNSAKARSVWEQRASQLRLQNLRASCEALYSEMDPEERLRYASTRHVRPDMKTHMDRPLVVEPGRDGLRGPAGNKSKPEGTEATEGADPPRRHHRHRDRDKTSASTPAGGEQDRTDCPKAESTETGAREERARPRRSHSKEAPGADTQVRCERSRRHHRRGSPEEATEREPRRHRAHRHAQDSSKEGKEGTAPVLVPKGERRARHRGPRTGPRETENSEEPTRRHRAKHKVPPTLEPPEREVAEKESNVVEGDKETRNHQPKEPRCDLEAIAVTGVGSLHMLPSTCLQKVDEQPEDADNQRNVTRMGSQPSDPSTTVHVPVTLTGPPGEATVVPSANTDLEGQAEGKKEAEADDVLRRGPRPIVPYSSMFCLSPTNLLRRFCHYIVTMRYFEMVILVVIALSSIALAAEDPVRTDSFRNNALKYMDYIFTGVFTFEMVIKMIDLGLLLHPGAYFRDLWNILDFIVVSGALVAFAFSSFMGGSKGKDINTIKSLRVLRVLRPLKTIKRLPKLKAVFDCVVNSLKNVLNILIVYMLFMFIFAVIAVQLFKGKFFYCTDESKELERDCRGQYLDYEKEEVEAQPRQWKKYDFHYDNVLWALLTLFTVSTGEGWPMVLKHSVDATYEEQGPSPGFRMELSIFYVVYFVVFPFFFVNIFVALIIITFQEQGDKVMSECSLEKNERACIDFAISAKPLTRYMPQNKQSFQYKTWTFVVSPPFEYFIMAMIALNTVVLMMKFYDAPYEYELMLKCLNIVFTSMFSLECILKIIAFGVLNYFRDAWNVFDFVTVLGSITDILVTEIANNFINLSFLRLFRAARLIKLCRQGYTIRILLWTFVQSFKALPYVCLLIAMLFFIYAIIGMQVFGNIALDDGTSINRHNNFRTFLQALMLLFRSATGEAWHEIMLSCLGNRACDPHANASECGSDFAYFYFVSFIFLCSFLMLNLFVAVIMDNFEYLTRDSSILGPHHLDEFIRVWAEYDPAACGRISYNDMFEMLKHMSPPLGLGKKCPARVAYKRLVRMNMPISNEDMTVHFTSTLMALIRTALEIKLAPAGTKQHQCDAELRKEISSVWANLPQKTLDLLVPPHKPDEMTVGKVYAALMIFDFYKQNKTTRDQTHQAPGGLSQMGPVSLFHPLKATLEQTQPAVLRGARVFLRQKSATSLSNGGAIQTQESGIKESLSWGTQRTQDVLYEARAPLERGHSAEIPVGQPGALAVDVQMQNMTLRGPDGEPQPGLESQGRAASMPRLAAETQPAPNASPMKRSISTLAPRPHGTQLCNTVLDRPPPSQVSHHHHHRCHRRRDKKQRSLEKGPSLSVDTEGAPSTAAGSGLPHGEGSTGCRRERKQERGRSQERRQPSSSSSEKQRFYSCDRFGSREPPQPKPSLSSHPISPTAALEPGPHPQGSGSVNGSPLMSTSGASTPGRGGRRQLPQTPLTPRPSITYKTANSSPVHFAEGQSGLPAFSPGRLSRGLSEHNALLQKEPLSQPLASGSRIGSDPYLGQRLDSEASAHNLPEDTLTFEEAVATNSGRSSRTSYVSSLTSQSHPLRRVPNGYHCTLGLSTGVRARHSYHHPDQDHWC
T1 sequence (P54290 25-944 partner limits assumed): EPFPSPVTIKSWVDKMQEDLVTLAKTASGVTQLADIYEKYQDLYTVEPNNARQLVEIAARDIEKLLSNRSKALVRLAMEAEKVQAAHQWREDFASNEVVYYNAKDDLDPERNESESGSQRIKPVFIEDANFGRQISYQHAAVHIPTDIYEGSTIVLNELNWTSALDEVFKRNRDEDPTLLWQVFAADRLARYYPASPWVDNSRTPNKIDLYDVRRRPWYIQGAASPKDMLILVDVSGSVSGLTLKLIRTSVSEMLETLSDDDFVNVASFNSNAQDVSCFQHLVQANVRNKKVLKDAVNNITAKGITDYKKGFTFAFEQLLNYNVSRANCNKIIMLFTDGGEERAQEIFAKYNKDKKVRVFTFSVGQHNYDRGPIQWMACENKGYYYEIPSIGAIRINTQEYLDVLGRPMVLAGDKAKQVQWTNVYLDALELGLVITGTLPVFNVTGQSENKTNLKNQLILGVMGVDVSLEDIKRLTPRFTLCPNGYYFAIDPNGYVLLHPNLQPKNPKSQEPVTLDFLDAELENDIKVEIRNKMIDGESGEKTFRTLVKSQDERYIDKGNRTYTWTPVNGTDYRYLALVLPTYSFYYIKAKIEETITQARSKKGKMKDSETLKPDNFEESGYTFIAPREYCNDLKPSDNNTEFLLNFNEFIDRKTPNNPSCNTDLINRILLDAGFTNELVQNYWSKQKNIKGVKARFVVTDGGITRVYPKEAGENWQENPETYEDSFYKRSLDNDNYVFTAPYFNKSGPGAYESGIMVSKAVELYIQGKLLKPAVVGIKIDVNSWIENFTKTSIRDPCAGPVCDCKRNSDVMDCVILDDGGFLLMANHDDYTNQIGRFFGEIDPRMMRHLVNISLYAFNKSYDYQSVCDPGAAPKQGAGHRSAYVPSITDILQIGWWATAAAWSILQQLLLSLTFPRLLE
T1 sequence (P54290 945-1091 partner limits assumed): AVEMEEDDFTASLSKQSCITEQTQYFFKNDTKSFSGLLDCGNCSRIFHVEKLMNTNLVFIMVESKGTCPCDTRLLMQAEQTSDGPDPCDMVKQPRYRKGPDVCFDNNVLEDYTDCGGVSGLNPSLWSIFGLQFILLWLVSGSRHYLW
T1 sequence (P54283 whole entry partner): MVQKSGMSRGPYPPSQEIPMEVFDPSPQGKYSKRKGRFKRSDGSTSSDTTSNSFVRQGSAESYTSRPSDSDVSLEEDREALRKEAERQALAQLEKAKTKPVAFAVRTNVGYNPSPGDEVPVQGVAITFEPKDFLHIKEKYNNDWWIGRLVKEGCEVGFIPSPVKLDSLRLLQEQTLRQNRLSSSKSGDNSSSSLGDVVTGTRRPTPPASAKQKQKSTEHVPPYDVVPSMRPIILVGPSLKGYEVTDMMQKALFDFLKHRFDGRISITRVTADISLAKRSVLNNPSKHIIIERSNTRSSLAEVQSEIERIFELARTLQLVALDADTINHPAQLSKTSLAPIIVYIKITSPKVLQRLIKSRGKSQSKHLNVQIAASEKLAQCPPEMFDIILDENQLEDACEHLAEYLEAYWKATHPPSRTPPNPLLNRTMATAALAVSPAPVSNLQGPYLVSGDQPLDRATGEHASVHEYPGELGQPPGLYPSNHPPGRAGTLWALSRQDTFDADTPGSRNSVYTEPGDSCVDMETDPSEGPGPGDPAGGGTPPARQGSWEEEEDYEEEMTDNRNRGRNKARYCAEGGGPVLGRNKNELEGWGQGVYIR

CC(C)=CCCC(C)=CCCC(C)=CCO [farnesol]
calcium-channel blocking, open channel blockage, channel preference (L-type receptors): preference for inhibition of L-type receptors | Inactivated Block (shift in V0.5) [1]: 10-25 mV | V0.5 ([1]; 100 nM farnesol): -70 mV | time course of development of current amplitude diminution ([1]; 100 nM farnesol, resting potential -70 mV): slower than that obtained at a resting potential of -100 mV | recovery from block ([1]; 100 nM farnesol, resting potential -70 mV, compared with open-channel blockage): much slower | peak current at -70 mV resting potential normalized to -100 mV ([1]; 250 nM farnesol): substantially diminished | reversibility of effect ([1]; 250 nM farnesol, holding -70 mV to test +10 mV): does not appear to be completely reversible | Z slope factor (Boltzman fit) ([1]; 25 μM farnesol): 3.8 | shift in V0.5 ([1]; 25 μM farnesol): about 20 mV | V0.5 (resting potential that diminishes peak currents to 1/2) ([1]; 25 μM farnesol present, mean values): -70 mV | Vh (Boltzman fit of steady state inactivation) ([1]; 25 μM farnesol, test potential +20 mV): -68.7 mV | Vh (Boltzman fit of steady state inactivation) ([1]; Wash, after 25 μM farnesol): -56.5 mV | Z slope factor (Boltzman fit) ([1]; Wash, after 25 μM farnesol): 4.0 | activity at 25 µM ([1]; read-out: peak current value (normalized to -100 mV resting potential)): 50% | activity at 25 µM ([1]; read-out: peak value as % of base value (normalized to -100 mV resting potential)): 80% | peak current at -70 mV resting potential normalized to -100 mV [2]: Only the N-type channels show substantially diminished values | peak current at -70 mV resting potential normalized to -100 mV (α1E calcium channel [3]): Only the N-type channels show substantially diminished values | channel type preference of open channel block [4]: preferentially inhibited | open channel blocking effect on current amplitudes [4]: diminished peak heights | normalized peak height ([5]; 5 μM farnesol): diminished | time to decay of current to the resting level ([5]; 5 μM or 25 μM farnesol): accelerated time to decay to the resting level | position of peak amplitude with respect to depolarization voltage (current/voltage relationship) ([5]; 10 μM farnesol): no dependence | normalized peak height ([5]; 25 μM farnesol): further dramatically diminished | open channel blocking effect on current amplitudes ([5]; 25 μM farnesol, resting potential -100 mV): diminished peak heights | peak currents upon removal of farnesol (reversibility) ([5]; after 5 μM and 25 μM farnesol): regenerated | intercept of inverse time constant for current decay versus farnesol concentration [5, 9]: 7.6 | slope of inverse time constant for current decay versus farnesol concentration [5, 9]: 4.8 | inhibition at 10 µM [5]: 60% | open channel blocking effect on current amplitudes [6]: diminished peak heights | peak current at -70 mV resting potential normalized to -100 mV [7]: Only the N-type channels show substantially diminished values | open channel blocking effect on current amplitudes (α1E calcium channel [8]): diminished peak heights

CCCCCCCCCCCC [dodecane]
Inactivated Block (shift in V0.5) [1]: ~ 10 mV | inactivation-type inhibition specific to the N-type receptor (summary in words) [1]: able to promote substantial inactivation-type inhibition | nonspecific open-channel blocking activity (summary in words) [5]: relatively lacking | inhibition at 10 µM [5]: 10 to 20%

CCCCCCCCCCCCN [dodecylamine]
Inactivated Block (shift in V0.5) [1]: ~ 10 mV | inhibition at 10 µM [5]: 90 to 100%

CC(=O)OCC=C(C)CCC=C(C)CCC=C(C)C [farnesyl acetate]
Inactivated Block (shift in V0.5) [1]: ~ 20 mV | inhibition at 10 µM [5]: 90 to 100%

CCCCCCCCCCN [decylamine]
Inactivated Block (shift in V0.5) [1]: ~ 10 mV | inhibition at 10 µM [5]: > 80%

CC(C)CCCC(C)CCCC(C)CCCC(C)C (stereo not drawn)
Inactivated Block (shift in V0.5) [1]: ~ 10 mV | inactivation-type inhibition specific to the N-type receptor (summary in words) [1]: able to promote substantial inactivation-type inhibition | nonspecific open-channel blocking activity (summary in words) [5]: relatively lacking | Open/Resting Block (determined at 10 μM) [5]: < 10%

CC(C)=CCCC(C)=CCCC(C)=CCOP(=O)(O)OP(=O)(O)O [farnesyl pyrophosphate]
Open/Resting Block (determined at 10 μM) [5]: Not active

COC(=O)C=C(C)CCC=C(C)CCC1OC1(C)C (stereo not drawn) [juvenile hormone III]
Inactivated Block (shift in V0.5) [1]: ~ 10 mV | inactivation-type inhibition specific to the N-type receptor (summary in words) [1]: able to promote substantial inactivation-type inhibition | nonspecific open-channel blocking activity (summary in words) [5]: relatively lacking | Open/Resting Block (determined at 10 μM) [5]: Not active

CC(C)=CCCC(C)=CCCC(C)=CCBr [farnesyl bromide]
Inactivated Block (shift in V0.5) [1]: ~ 20 mV | inactivation-type inhibition specific to the N-type receptor (summary in words) [1]: able to promote substantial inactivation-type inhibition | nonspecific open-channel blocking activity (summary in words) [5]: relatively lacking | inhibition at 10 µM [5]: 20 to 30%
